This note sets out measurements from EP4603105A1, “PHARMACEUTICAL COMPOSITION CONTAINING CYCLIC COMPOUND HAVING SELECTIVE KRAS INHIBITORY EFFECT AGAINST HRAS AND NRAS” (CHUGAI SEIYAKU KABUSHIKI KAISHA, priority 2022, dated 2024).

What is called IC50 is the concentration at which inhibition is half-maximal. Read a low IC50 as inhibition by little substance.

Assay [1] deals with GDP-bound NRAS wild-type protein (Homo sapiens, UniProt P01111). The assay can be described thus: Binding to NRAS by surface plasmon resonance (SPR), KD and KD ratio to KRAS. In a few lines: (§1)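 Affinity is measured by surface plasmon resonance at 30°C against captured, GDP-loaded RAS carrying a biotinylated Avi tag. Compounds are titrated by single-cycle kinetics, and KD comes from a 1:1 fit.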
Sequence of GDP-bound NRAS wild-type protein (P01111 whole entry): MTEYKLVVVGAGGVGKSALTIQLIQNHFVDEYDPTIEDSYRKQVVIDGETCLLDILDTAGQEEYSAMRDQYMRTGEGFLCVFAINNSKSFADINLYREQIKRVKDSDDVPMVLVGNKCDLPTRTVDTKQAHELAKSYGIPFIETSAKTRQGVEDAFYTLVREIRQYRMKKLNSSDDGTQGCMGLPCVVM
(Surface plasmon resonance follows binding to a sensor surface in real time, without labels.)

The next assay concerns the target HRAS wild-type protein (Homo sapiens, UniProt P01112). The assay can be described thus: Binding to HRAS by surface plasmon resonance (SPR), KD and KD ratio to KRAS. In short, it runs like this: as §1
Assay [2] has as its system human lung cancer strain NCI-H441. Type of assay: cell-based. In a few lines:
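Readout: […] after the ATP-based reagent. Compound: serial dilutions in dimethyl sulfoxide.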

Setting [3] is: ratio of the KD value with respect to GDP-bound NRAS wild-type protein to the KD value with respect to KRAS.
Where [4] appears, read: ratio of the KD value with respect to HRAS wild-type protein to the KD value with respect to KRAS.
Setting [5] is: ratio of KD for GDP-bound NRAS wild-type protein to KD for KRAS.
Setting [6] is: ratio of KD for HRAS wild-type protein to KD for KRAS.

SMILES strings stand for the structures.

Sequence of HRAS wild-type protein (P01112 whole entry): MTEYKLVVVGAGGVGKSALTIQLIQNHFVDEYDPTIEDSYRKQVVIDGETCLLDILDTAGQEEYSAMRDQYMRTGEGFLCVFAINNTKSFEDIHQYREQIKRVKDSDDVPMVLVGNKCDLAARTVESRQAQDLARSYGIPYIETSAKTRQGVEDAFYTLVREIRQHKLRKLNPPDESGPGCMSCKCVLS

In the case of `CCC[C@H]1C(=O)N[C@@H]([C@@H](C)CC)C(=O)N(C)CC(=O)N(C)[C@H]2C/C=C\CCN(C2=O)[C@@H](CC2CCC(F)(F)CC2)C(=O)N(C)CC(=O)N[C@@H](CCc2ccc(C(F)(F)F)c(OC)c2)C(=O)N2C[C@H](OCC)C[C@H]2C(=O)N(C)C2(CCC2)C(=O)N(C)[C@@H](C(CC)CC)C(=O)N(C)[C@H](C(=O)N(C)C)CC(=O)N1C` [PP2345], the “NRAS /KRAS” value in assay [1] (setting [3]) is “A (a compound having 10 or more and less than 20 is denoted as A)”. Moreover, the “HRAS /KRAS” value on HRAS wild-type protein (setting [4]) was “A (a compound having 10 or more and less than 20 is denoted as A)”. Moreover, in assay [2], the half-inhibitory concentration (IC50) is 77.2 nM.

With `CCOC[C@H]1C(=O)N[C@@H]([C@@H](C)CC)C(=O)N(C)CC(=O)N(C)[C@H]2C/C=C\CCN(C2=O)[C@@H](CC2CCC(F)(F)CC2)C(=O)N(C)CC(=O)N[C@@H](CCc2ccc(C(F)(F)F)c(OC)c2)C(=O)N2C[C@H](OCC)C[C@H]2C(=O)N(C)C2(CCC2)C(=O)N(C)[C@@H](C(CC)CC)C(=O)N(C)[C@H](C(=O)N(C)C)CC(=O)N1C` [PP2347], the “NRAS /KRAS” value in assay [1] (setting [3]) was “A (a compound having 10 or more and less than 20 is denoted as A)”. Further, the “HRAS /KRAS” value on HRAS wild-type protein (setting [4]) was “A (a compound having 10 or more and less than 20 is denoted as A)”. This compound also displayed a 50% inhibitory concentration (IC50) in assay [2] of 143 nM.

Consider `CCC[C@H]1C(=O)N[C@@H]([C@@H](C)CC)C(=O)N(C)CC(=O)N(C)[C@H]2C/C=C\CCN(C2=O)[C@@H](CC2CCC(F)(F)CC2)C(=O)N(C)CC(=O)N[C@@H](CCc2ccc(C(F)(F)F)c(OC)c2)C(=O)N2C[C@H](OCC)C[C@H]2C(=O)N(C)C2(CCC2)C(=O)N(C)[C@@H](C2CCCC2)C(=O)N(C)[C@H](C(=O)N(C)C)CC(=O)N1C` [PP2348], for which, in assay [1] (setting [3]), the “NRAS /KRAS” value is “A (a compound having 10 or more and less than 20 is denoted as A)”. The “HRAS /KRAS” value on HRAS wild-type protein (setting [4]) is “A (a compound having 10 or more and less than 20 is denoted as A)”. In assay [2], this compound returned an IC50 of 52.7 nM.

As to `CCC[C@H]1C(=O)N[C@@H]([C@@H](C)CC)C(=O)N(C2CC2)CC(=O)N(C)[C@H]2C/C=C\CCN(C2=O)[C@@H](CC2CCC(F)(F)CC2)C(=O)N(C)CC(=O)N[C@@H](CCc2ccc(C(F)(F)F)c(OC)c2)C(=O)N2C[C@H](OCC)C[C@H]2C(=O)N(C)C2(CCC2)C(=O)N(C)[C@@H](C(CC)CC)C(=O)N(C)[C@H](C(=O)N(C)C)CC(=O)N1C` [PP2349], in assay [1] (setting [3]), the “NRAS /KRAS” value was “A (a compound having 10 or more and less than 20 is denoted as A)”. On HRAS wild-type protein (setting [4]), the “HRAS /KRAS” value was “A (a compound having 10 or more and less than 20 is denoted as A)”. In assay [2], this compound had a 50% inhibitory concentration (IC50) of 73.2 nM.

Take `CCCOC[C@H]1C(=O)N[C@@H]([C@@H](C)CC)C(=O)N(C)CC(=O)N(C)[C@H]2C/C=C\CCN(C2=O)[C@@H](CC2CCC(F)(F)CC2)C(=O)N(C)CC(=O)N[C@@H](CCc2ccc(C(F)(F)F)c(OC)c2)C(=O)N2C[C@H](OCC)C[C@H]2C(=O)N(C)C2(CCC2)C(=O)N(C)[C@@H](C2CCCC2)C(=O)N(C)[C@H](C(=O)N(C)C)CC(=O)N1C` [PP2350]: the “NRAS /KRAS” value in assay [1] (setting [3]) was “A (a compound having 10 or more and less than 20 is denoted as A)”. Besides, the “HRAS /KRAS” value at HRAS wild-type protein (setting [4]) is “A (a compound having 10 or more and less than 20 is denoted as A)”. This compound registered a half-inhibitory concentration (IC50) in assay [2] of 60.3 nM.

In the case of `CCC[C@H]1C(=O)N[C@@H]([C@@H](C)CC)C(=O)N(C2CC2)CC(=O)N(C)[C@H]2C/C=C\CCN(C2=O)[C@@H](CC2CCC(F)(F)CC2)C(=O)N(C)CC(=O)N[C@@H](CCc2ccc(C(F)(F)F)c(OC)c2)C(=O)N2C[C@H](OCC)C[C@H]2C(=O)N(C)C2(CCC2)C(=O)N(C)[C@@H](C2CCCC2)C(=O)N(C)[C@H](C(=O)N(C)C)CC(=O)N1C` [PP2352], in assay [1] (setting [3]), the “NRAS /KRAS” value is “A (a compound having 10 or more and less than 20 is denoted as A)”. On HRAS wild-type protein (setting [4]), the “HRAS /KRAS” value is “A (a compound having 10 or more and less than 20 is denoted as A)”. In assay [2], inhibition was half-maximal at 15.6 nM (IC50).

Turning to `CCC[C@H]1C(=O)N[C@@H]([C@@H](C)CC)C(=O)N2CCC[C@H]2C(=O)N(C)[C@H]2C/C=C\CCN(C2=O)[C@@H](CC2CCC(F)(F)CC2)C(=O)N(C)CC(=O)N[C@@H](CCc2ccc(C(F)(F)F)c(OC)c2)C(=O)N2C[C@H](OCC)C[C@H]2C(=O)N(C)C2(CCC2)C(=O)N(C)[C@@H](C(CC)CC)C(=O)N(C)[C@H](C(=O)N(C)C)CC(=O)N1C` [PP2353], the “NRAS /KRAS” value in assay [1] (setting [3]) was “A (a compound having 10 or more and less than 20 is denoted as A)”. Moreover, the “HRAS /KRAS” value at HRAS wild-type protein (setting [4]) was “A (a compound having 10 or more and less than 20 is denoted as A)”. The compound further showed an IC50 in assay [2] of 68.8 nM.

`CCO[C@@H]1C[C@H]2C(=O)NC3(CC(C)(C)C3)C(=O)N(C)[C@@H](C3CCCC3)C(=O)N(C)[C@H](C(=O)N3CCCCC3)CC(=O)N(C)[C@H]3CCC/C=C/c4ccc(cc4)C[C@@H](C(=O)N(C)CC(=O)N[C@@H](CCc4cc(F)c(C(F)(F)F)c(F)c4)C(=O)N2C1)N1CC/C=C\C[C@@H](C1=O)N(C)C(=O)CN(C)C(=O)[C@H]([C@@H](C)CC)NC3=O` [PP2573]: in assay [1] (setting [5]), the “NRAS /KRAS” value was “A (a compound having 10 or more and less than 20 is denoted as A)”. The “HRAS /KRAS” value on HRAS wild-type protein (setting [6]) is “A (a compound having 10 or more and less than 20 is denoted as A)”. The IC50 in assay [2] is 10.1 nM.

Consider `CCO[C@@H]1C[C@H]2C(=O)NC3(CC(C)(C)C3)C(=O)N(C)[C@@H](C3CCCC3)C(=O)N(C)[C@H](C(=O)N3CCCC3)CC(=O)N(C)[C@H]3CCC/C=C/c4ccc(cc4)C[C@@H](C(=O)N(C)CC(=O)N[C@@H](CCc4cc(F)c(C(F)(F)F)c(F)c4)C(=O)N2C1)N1CC/C=C\C[C@@H](C1=O)N(C)C(=O)CN(C)C(=O)[C@H]([C@@H](C)CC)NC3=O` [PP2574], for which the “NRAS /KRAS” value in assay [1] (setting [5]) is “A (a compound having 10 or more and less than 20 is denoted as A)”. Besides, the “HRAS /KRAS” value at HRAS wild-type protein (setting [6]) was “A (a compound having 10 or more and less than 20 is denoted as A)”. For the same compound, in assay [2], the IC50 is 4.2 nM.

For `CCO[C@@H]1C[C@H]2C(=O)NC3(CC(C)(C)C3)C(=O)N(C)[C@@H](C(CC)CC)C(=O)N(C)[C@H](C(=O)N(C)C)CC(=O)N(C)[C@H]3CCC/C=C/c4ccc(cc4)C[C@@H](C(=O)N(C)CC(=O)N[C@@H](CCc4cc(F)c(C(F)(F)F)c(F)c4)C(=O)N2C1)N1CC/C=C\C[C@@H](C1=O)N(C)C(=O)CN(C)C(=O)[C@H]([C@@H](C)CC)NC3=O` [PP2575], in assay [1] (setting [5]), the “NRAS /KRAS” value was “A (a compound having 10 or more and less than 20 is denoted as A)”. For the same compound, the “HRAS /KRAS” value at HRAS wild-type protein (setting [6]) was “A (a compound having 10 or more and less than 20 is denoted as A)”. The compound further had an IC50 in assay [2] of 4.1 nM.

Consider `CCO[C@@H]1C[C@H]2C(=O)NC3(CC(C)(C)C3)C(=O)N(C)[C@@H](C(CC)CC)C(=O)N(C)[C@H](C(=O)N3CCCC3)CC(=O)N(C)[C@H]3CCC/C=C/c4ccc(cc4)C[C@@H](C(=O)N(C)CC(=O)N[C@@H](CCc4cc(F)c(C(F)(F)F)c(F)c4)C(=O)N2C1)N1CC/C=C\C[C@@H](C1=O)N(C)C(=O)CN(C)C(=O)[C@H]([C@@H](C)CC)NC3=O` [PP2576], for which, in assay [1] (setting [5]), the “NRAS /KRAS” value was “A (a compound having 10 or more and less than 20 is denoted as A)”. Moreover, the “HRAS /KRAS” value at HRAS wild-type protein (setting [6]) was “A (a compound having 10 or more and less than 20 is denoted as A)”. This compound also showed a concentration for half-maximal inhibition (IC50) in assay [2] of 5.7 nM.

For `CCO[C@@H]1C[C@H]2C(=O)NC3(CC(C)(C)C3)C(=O)N(C)[C@@H](C3CCCC3)C(=O)N(C)[C@H](C(=O)N(C)CC)CC(=O)N(C)[C@H]3CCC/C=C/c4ccc(cc4)C[C@@H](C(=O)N(C)CC(=O)N[C@@H](CCc4ccc(Cl)c(Cl)c4)C(=O)N2C1)N1CC/C=C\C[C@@H](C1=O)N(C)C(=O)CN(C)C(=O)[C@H]([C@@H](C)CC)NC3=O` [PP2577], the “NRAS /KRAS” value in assay [1] (setting [5]) was “A (a compound having 10 or more and less than 20 is denoted as A)”. Besides, the “HRAS /KRAS” value on HRAS wild-type protein (setting [6]) is “A (a compound having 10 or more and less than 20 is denoted as A)”. The same compound gave a concentration for half-maximal inhibition (IC50) in assay [2] of 4.1 nM.
